According to patent publication US20110008261A1, “METHOD TO PRODUCE HYPERPOLARISED AMINO ACIDS AND AMINOSULPHONIC ACIDS” (GE HEALTHCARE LIMITED, priority 2008, published 2011):

Key:
[1] = Solid state polarisation after DNP, by solid state 13C-NMR; assay type: physicochemical; conditions: 3.35 T, 93.90 GHz
Protocol: The level of polarisation may for instance be determined by solid state NMR measurements of the NMR nucleus in the frozen hyperpolarised sample. For instance, if the NMR active nucleus in the hyperpolarised sample is ^13C, a solid state ^13C-NMR measurement is carried out. The solid state ^13C-NMR measurement preferably consists of a simple pulse-acquire NMR sequence using a low flip angle. The signal intensity of the hyperpolarised sample in the ^13C-NMR spectrum is compared with signal intensity of the sample in a ^13C-NMR spectrum acquired before the DNP polarisation process. The level of polarisation is then calculated from the ratio of the signal intensities of before and after polarisation.
The probe is inserted into the probe-retaining container, submerged in the liquid helium and irradiated with microwaves, preferably at a frequency of about 94 GHz at 200 mW. The level of polarisation may for instance be monitored by solid state NMR measurements of the NMR active nucleus in the frozen solution comprising the hyperpolarised sample. For instance, if the NMR active nucleus in the hyperpolarised sample is ^13C, a solid state ^13C-NMR measurement is carried out. The solid state ^13C-NMR measurement preferably consists of a simple pulse-acquire NMR sequence using a low flip angle. The signal intensity of the hyperpolarised sample in the ^13C-NMR spectrum is compared with signal intensity of the sample in a ^13C-NMR spectrum acquired before the DNP polarisation process. The level of polarisation is then calculated from the ratio of the signal intensities of before and after polarisation.
32.5 mg (0.258 mmol) of the ^13C1-alanine hydrochloride obtained in Example 1a was added to 42 mg of a stock solution in a micro test tube. The stock solution had been prepared by dissolving the DNP agent (trityl radical) tris(8-carboxy-2,2,6,6-(tetra(hydroxyethyl)-benzo-[1,2-4,5′]-bis-(1,3)-dithiole-4-yl)-methyl sodium salt which had been synthesised according to Example 7 of WO-A1-98/39277 and the paramagnetic metal ion (Gd-chelate of 1,3,5-tris-(N-(DO3A-acetamido)-N-methyl-4-amino-2-methylphenyl)-[1,3,5]triazinane-2,4,6-trione) which had been synthesised according to Example 4 of WO-A-2007/064226 in glycerol in such a way that a glycerol solution being 26 mM in trityl radical and 0.52 mM in Gd-chelate had been obtained. The resulting composition was sonicated to dissolve the ^13C1-alanine hydrochloride and produce a clear solution. […] The frozen solution was polarised under DNP conditions at 1.2 K in a 3.35 T magnetic field under irradiation with microwave (93.90 GHz). Polarisation was followed by solid state ^13C-NMR and the solid state polarisation was determined to be 40%.
^13C1-glutamine (45.5 mg, 0.30 mmol, Cambridge Isotopes) was weighted into a micro test tube and dissolved in 23.5 μl water and 25 μl aqueous NaOH (12 M). The mixture was sonicated and gently heated to produce a clear solution. To the solution was added 5.7 mg of an aqueous solution of tris(8-carboxy-2,2,6,6-(tetra(hydroxyethyl)-benzo-[1,2-4,5′]-bis-(1,3)-dithiole-4-yl)-methyl sodium salt (trityl radical; 139 μmol/g solution) and 2.1 mg of an aqueous solution of the Gd-chelate of 1,3,5-tris-(N-(DO3A-acetamido)-N-methyl-4-amino-2-methylphenyl)-[1,3,5]triazinane-2,4,6-trione) (paramagnetic metal ion; 14.5 μmol/g solution) The resulting composition was sonicated and gently heated to produce a clear solution. […] The sample cup was removed from the liquid nitrogen, 25 μl aqueous HCl (12 M) were added to the sample cup. […] The frozen solution was polarised under DNP conditions at 1.2 K in a 3.35 T magnetic field under irradiation with microwave (93.90 GHz). Polarisation was followed by solid state ^13C-NMR and the solid state polarisation was determined to be 35%.

[2] = Liquid state polarisation after liquefaction and neutralization, by liquid state 13C-NMR at 400 MHz; assay type: physicochemical
Protocol: In a similar way, the level of polarisation for liquid hyperpolarised samples may be determined by liquid state NMR measurements of the NMR active nucleus in the liquid hyperpolarised sample. Again the signal intensity of the liquid hyperpolarised sample is compared with the signal intensity of the liquid sample before polarisation. The level of polarisation is then calculated from the ratio of the signal intensities of before and after polarisation.
After 150 minutes of dynamic nuclear polarisation, the obtained frozen polarised solution was dissolved in a dissolution medium containing 6 ml of a phosphate buffer (20 mM, pH 6.8, 100 mg/l EDTA), aqueous NaOH (27 μl 12 M solution, 1 eq) and 30 mg NaCl.
After 120 minutes of dynamic nuclear polarisation, the obtained frozen polarised solution was dissolved in a dissolution medium containing 6 ml phosphate buffer (40 mM, pH 7, 100 mg/l EDTA, 0.9% NaCl).

[3] = basic preparation according to Example 2, DNP at 1.2 K
[4] = basic preparation according to Example 2, after liquefaction and neutralization
[5] = acidic preparation according to Example 1, DNP at 1.2 K
[6] = acidic preparation according to Example 1, after liquefaction and neutralization

Structure (SMILES)	Solid state polarisation [1, 3] [%]	Liquid state polarisation [2, 4] [%]	Solid state polarisation [1, 5] [%]	Liquid state polarisation [2, 6] [%]	also measured
NC(=O)CCC(N)[13C](=O)[O-].[Na+] (stereo not drawn) [Sodium ^13C1-2-amino-4-carbamoyl-butanoate]	–	–	–	–	Solid state polarisation ([1]; Example 2a, 4 M aqueous, 11 mM trityl radical, 0.4 mM Gd3+, 1.2 K): 35%
C[C@H](N)[13C](=O)O.Cl [^13C1-alanine hydrochloride, ^13C1-alaninium chloride]	–	–	–	–	Solid state polarisation ([1]; Example 1b, 4 M in glycerol, 17 mM trityl radical, 0.9 mM Gd3+, 1.2 K): 40%
CC(N)[13C](=O)O (stereo not drawn) [^13C1-alanine]	18	16	–	–	Liquid state polarisation ([2]; Example 1c, after 150 minutes DNP, dissolved in phosphate buffer/NaOH, final pH 6.8, 400 MHz): 35%
N[C@@H](CS)[13C](=O)O [^13C1-cysteine]	–	–	25	17	–
NC(=O)CC[C@H](N)[13C](=O)O [^13C1-glutamine]	–	–	–	6	Liquid state polarisation ([2]; Example 2b, after 120 minutes DNP, dissolved in phosphate buffer, final pH 7, 400 MHz): 30%
NC[13C](=O)O [^13C1-glycine]	19	18	16	16	–
CC(C)C[C@H](N)[13C](=O)O [^13C1-leucine]	35	21	–	–	–
CSCCC(N)[13C](=O)O (stereo not drawn) [^13C1-methionine]	–	–	41	26	–
O=[13C](O)C1CCCN1 (stereo not drawn) [^13C1-proline]	–	–	–	16	–
